We go through 19 compounds from patent US20200031811A1, “SUBSTITUTED MONO- AND POLYAZANAPHTHALENE DERIVATIVES AND THEIR USE” (Basilea Pharmaceutica International AG, priority 2015, published 2020).

One assay deals with T1, MNK1 (Homo sapiens, UniProt Q9BUB5).
T1 construct: purchased Life Technologies or Carna Biosciences PV6023 or 02-145; host or cells: baculovirus infected insect cells
The assay can be described thus: MNK inhibition assay (Z-Lyte kinase assay, Ser/Thr 7 peptide). It counts as biochemical. Conditions: for IC50: recombinant GST-MNK1, 3 hours at 31° C. In short, it runs like this:
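Recombinant GST-MNK1 from baculovirus-infected insect cells, Z-Lyte Ser/Thr 7 peptide, enzyme set for ~30% phosphorylation in buffer-only wells; 3 hours at 31° C. Compounds at 50–10000 nM (potent ones down to 0.5 nM), at least duplicate. IC50 from % substrate phosphorylation versus buffer-only wells, fluorescence read-out.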

For assay [1], the system named is human pancreatic cancer cell line MiaPaCa2 (ATCC CRL-1420). The assay can be described thus: Cell growth assay (CellTiterGlo, 72 hours). Type of assay: cell-based. As to conditions: for IC50: MIA PaCa-2, MiaPaCa2 cells, 72 hours, read-out: IC50 MiaPaCa; for inhibition at 100 µM: MIA PaCa-2, at 100 μM, read-out: Inhibition of MiaPaCa growth at indicated concentration. As to the method:
The inhibition of cell growth by the compounds was tested by exposing the human pancreatic cancer cell line MiaPaCa2 (ATCC CRL-1420) to the compounds. The assay was performed in 384 well clear bottom white microtiter plates (Greiner #781098). Each well was seeded with 10^3 cells in 20 μl of Dulbecco's modified Eagle's medium (Sigma D6796) supplied with 10% fetal calf scrum (Sigma F7524), 2.5% horse serum (Sigma H0146), 1% Penicillin-Streptomycin (Sigma P0781), 1% MEM nonessential amino acid solution 100× (Sigma M71459) and 1% 200 mM L-Glutamine (Sigma G7513) culture medium. After overnight incubation at 37° C. in 5% CO2 the compounds were added in the following concentrations: 100, 50, 20, 10, 5, 2, 1, 0.5, 0.2 and 0.1 μM. Each compound concentration was tested in quadruplicate. The incubation was then continued for 72 hours. After 72 hours the growth of the cells was assessed by the addition of the CellTiterGlo reagent (Promega G9242) as instructed by the provider. The luminescent signal was recorded on a SpectraMax M2 microplate reader. The signal obtained in wells containing cells cultivated in the absence of compound was set to 100% growth after subtracting the signal obtained in medium only wells. The % growth in each well was calculated by subtracting the medium only value and dividing through the 100% growth value. The IC50 for cell growth, the concentration of compound at which cell growth was reduced to 50%, was calculated with the GraFit6 software (Erythacus software).
(ATP-based viability assays read luminescence as a measure of living cells.)

[2] abbreviates: read-out: Inhibition of MNK1 activity at indicated concentration.

T1 sequence (Q9BUB5 whole entry): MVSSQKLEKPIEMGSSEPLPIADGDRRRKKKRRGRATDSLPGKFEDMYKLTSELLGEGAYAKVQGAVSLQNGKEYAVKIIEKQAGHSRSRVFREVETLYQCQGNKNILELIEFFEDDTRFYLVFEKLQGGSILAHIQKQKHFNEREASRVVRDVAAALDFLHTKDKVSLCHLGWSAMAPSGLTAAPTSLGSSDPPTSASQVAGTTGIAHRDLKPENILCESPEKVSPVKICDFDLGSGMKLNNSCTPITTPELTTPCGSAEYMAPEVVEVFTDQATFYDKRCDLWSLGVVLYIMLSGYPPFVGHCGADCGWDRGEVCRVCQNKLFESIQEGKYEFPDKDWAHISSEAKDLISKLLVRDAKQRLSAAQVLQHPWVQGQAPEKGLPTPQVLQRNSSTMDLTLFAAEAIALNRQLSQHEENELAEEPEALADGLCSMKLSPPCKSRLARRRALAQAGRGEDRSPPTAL

A word on the IC50: it is the concentration that gives 50% inhibition. With `CN(C)CCNc1ccc2cncc(-c3cc4ccccc4o3)c2c1` [Example 99, N-[4-(Benzofuran-2-yl)-6-isoquinolyl]-N′,N′-dimethyl-ethane-1,2-diamine], the inhibition at 1 µM on MNK1 (setting [2]) stood at 60%. In assay [1], the IC50 turned out to be 4.39 µM.

For the compound `NCCNc1ccc2cncc(-c3cc4ccccc4o3)c2c1` [Example 100, N′-[4-(Benzofuran-2-yl)-6-isoquinolyl]ethane-1,2-diamine], at MNK1 (at 10 μM, read-out: Inhibition of MNK1 activity at indicated concentration), the inhibition at 10 µM is 51%. Also, the IC50 in assay [1] came to 4.01 µM.

For the compound `Cn1nccc1NCc1ccc2cncc(-c3cc4ccccc4o3)c2c1` [Example 101], the IC50 on MNK1 was found to be 0.18 µM; in assay [1], 18.9 µM.

For `NCCOc1ccc2cncc(-c3cc4ccccc4o3)c2c1` [Example 102, 2-[[4-(Benzofuran-2-yl)-6-isoquinolyl]oxy]ethanamine], the IC50 was found to be 1.05 µM on MNK1 and 7 µM in assay [1].

Consider `NCCCNC(=O)c1ccc2cncc(-c3cc4ccccc4o3)c2n1` [Example 103, N-(3-aminopropyl)-8-(benzofuran-2-yl)-1,6-naphthyridine-2-carboxamide], for which the IC50 on MNK1 was 0.088 µM; in assay [1], 4.12 µM.

For `NCCCOCc1ccc2cncc(-c3cc4ccccc4o3)c2c1` [Example 105, 3-[[4-(Benzofuran-2-yl)-6-isoquinolyl]methoxy]propan-1-amine], the IC50 at MNK1 was 0.089 µM; in assay [1], 12.8 µM.

For the compound `NCCCOCc1ccc2cncc(-c3ccc(Cl)cc3)c2c1` [Example 106], the inhibition at 1 µM at MNK1 (setting [2]) was 34%. Also, the concentration for half-maximal inhibition (IC50) in assay [1] came to 20.7 µM.

For the compound `NCCCOCc1ccc2cncc(-c3ccc(Cl)c(Cl)c3)c2c1` [Example 107], the IC50 on MNK1 was 1.12 µM; in assay [1] it was 21 µM.

As for `NCCCOCc1ccc2cncc(-c3ccc(NC(=O)Nc4ccccc4)cc3)c2c1` [Example 108, 1-[4-[6-(3-Aminopropoxymethyl)-4-isoquinolyl]phenyl]-3-phenyl-urea], the half-inhibitory concentration (IC50) at MNK1 was 3.51 µM; in assay [1] it was 15 µM.

With `NCCCOCc1ccc2c(N)ncc(-c3cc4ccccc4o3)c2c1` [Example 109, 6-(3-Aminopropoxymethyl)-4-(benzofuran-2-yl)isoquinolin-1-amine], the values for the concentration for half-maximal inhibition (IC50) (at MNK1; in assay [1]) were 0.687 µM and 8.54 µM, respectively.

Take `NCCCOCc1ccc2c(N)ncc(-c3ccc(Cl)cc3)c2c1` [Example 110]: the results for the IC50 (on MNK1; in assay [1]) were 0.395 µM and 11.3 µM, respectively.

Take `NCCCOCc1ccc2c(N)ncc(-c3ccc(Cl)c(Cl)c3)c2c1` [Example 111]: the IC50 at MNK1 came out at 1.15 µM; in assay [1] it was 8.32 µM.

On to `NCCCOCc1ccc2c(N)ncc(-c3ccc(NC(=O)Nc4ccccc4)cc3)c2c1` [Example 112, 1-[4-[1-Amino-6-(3-aminopropoxymethyl)-4-isoquinolyl]phenyl]-3-phenyl-urea], for which the inhibition at 1 µM at MNK1 (setting [2]) turned out to be 19%. Besides, in assay [1], the concentration for half-maximal inhibition (IC50) was 43.8 µM.

For `NC1CCN(Cc2ccc3cncc(-c4ccc(NC(=O)Nc5ccc(Cl)cc5)cc4)c3c2)CC1` [Example 113, 1-[4-[6-[(4-Amino-1-piperidyl)methyl]-4-isoquinolyl]phenyl]-3-(4-chlorophenyl)urea], the half-inhibitory concentration (IC50) at MNK1 turned out to be 3.15 µM; in assay [1] it was 9.21 µM.

For the compound `NC1CCN(Cc2ccc3cncc(-c4ccc(NC(=O)Nc5cccc(Cl)c5)cc4)c3c2)CC1` [Example 114], the concentration for half-maximal inhibition (IC50) at MNK1 was found to be 1.21 µM; in assay [1] it was 3.83 µM.

Take `NC1CCN(Cc2ccc3cncc(-c4ccc(NC(=O)Nc5ccncc5)cc4)c3c2)CC1` [Example 115]: the IC50 on MNK1 stood at 0.49 µM. Moreover, in assay [1], the inhibition at 100 µM stood at 52%.

As for `CC(C)(C)c1cc(NC(=O)Nc2ccc(-c3cncc4ccc(CN5CCC(N)CC5)cc34)cc2)no1` [Example 116], the IC50 on MNK1 was 0.887 µM; in assay [1], 3.07 µM.

Consider `NC1CCN(Cc2ccc3cncc(-c4ccc(NC(=O)Nc5cccnc5)cc4)c3c2)CC1` [Example 117], for which the 50% inhibitory concentration (IC50) at MNK1 was 0.603 µM. For the same compound, the inhibition at 100 µM in assay [1] came to 34%.

For the compound `NC1CCN(Cc2ccc3cncc(-c4ccc(NC(=O)NC5CC5)cc4)c3c2)CC1` [Example 118], the IC50 at MNK1 came to 0.422 µM. Moreover, the inhibition at 100 µM in assay [1] is 48%.
